The values that follow come from patent publication US11259956B2, “Combination therapy intravaginal rings” (International Partnership For Microbicides, Inc., priority 2013, dated 2022).

Series [1] concerns wild-type HIV-1 strains and HIV-1 strains harboring different resistance-inducing mutations. As to conditions: Das et al., J. Med Chem., 2004; cited from earlier work.
A short description of series [2]: Solubility of dapivirine in water. Format: physicochemical.

Each structure is given as a SMILES string.

Usually solubility stands for the dissolved amount per volume that the medium holds. A high value points to a readily soluble substance.

As to `Cc1cc(C)c(Nc2ccnc(Nc3ccc(C#N)cc3)n2)c(C)c1` [dapivirine, 4-[[4-[(2,4,6-trimethylphenyl)amino]-2-pyrimidinyl]amino]benzonitrile], the “Activity against HIV-1 strains” value in series [1] is given as “potent activity”. In series [2], the “Solubility in water” value is “virtually insoluble in water” and the solubility was below 1 µg/mL.
